ChEMBL document CHEMBL1201862, “PubChem BioAssay data set” (2004)
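Each compound was tested at five concentrations against cells in 96-well plates for 48 hours. The concentration for 50% growth inhibition is given as GI50.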 Activity calls are given as the source filed them. No stated cut-off is given here; in the data, active = GI50 up to about 1.1 µM and inactive = higher.

Columns and labels:
Assay in all cases: growth of human tumour cells (NCI), 48 h
A498 = system: A498
HT-29 = system: HT-29
UACC-62 = system: UACC-62
RPMI-8226 = system: RPMI-8226
OVCAR-8 = system: OVCAR-8
SF-268 = system: SF-268
HOP-62 = system: HOP-62
HCT-116 = system: HCT-116
KM-20L2 = system: KM-20L2
KM12 = system: KM12
SF-295 = system: SF-295
U-251 = system: U-251
K562 = system: K562
HOP-92 = system: HOP-92
CAKI-1 = system: CAKI-1
COLO 205 = system: COLO 205
Malme-3M = system: Malme-3M

Measured: GI50

O=C(CN1CCN(c2cccc(Cl)c2)CC1)N1CCc2c([nH]c3ccccc23)C1c1cccnc1 (stereo unspecified)
inactive: A498 20.5 µM | HT-29 4 µM | UACC-62 11.3 µM | RPMI-8226 1.92 µM | OVCAR-8 19.4 µM | SF-268 13.1 µM | HOP-62 14.7 µM | HCT-116 4.5 µM | KM-20L2 3 µM | KM12 4.85 µM | SF-295 8.53 µM | U-251 10.2 µM | K562 3.03 µM | HOP-92 12.8 µM | CAKI-1 12.8 µM

N=C(N)NCCCC(Nc1c2ccccc2[n+]([O-])c2ccccc12)C(=O)O (stereo unspecified)
inactive: A498 > 100 µM | COLO 205 27.3 µM | UACC-62 42.5 µM | RPMI-8226 10.4 µM | OVCAR-8 31.6 µM | SF-268 56.4 µM | HOP-62 > 100 µM | HCT-116 24.9 µM | KM-20L2 95.7 µM | KM12 68.4 µM | Malme-3M 39.4 µM | SF-295 > 100 µM | U-251 72.3 µM | K562 27 µM

CCCCNC(=S)OCCC(C)CCCC(C)C (stereo unspecified)
inactive: A498 > 100 µM | HT-29 > 100 µM | UACC-62 > 100 µM | RPMI-8226 > 100 µM | OVCAR-8 > 100 µM | SF-268 > 100 µM | HOP-62 > 100 µM | HCT-116 > 100 µM | KM-20L2 > 100 µM | KM12 > 100 µM | Malme-3M > 100 µM | SF-295 > 100 µM | U-251 > 100 µM | K562 > 100 µM | CAKI-1 > 100 µM

COc1ccc(-n2/c(=N/C(=S)N(C)C)ss/c2=N\C(=S)N(C)C)cc1
inactive: A498 > 100 µM | HT-29 2.26 µM | COLO 205 48 µM | UACC-62 4.21 µM | RPMI-8226 21 µM | OVCAR-8 37 µM | SF-268 77.1 µM | HOP-62 50.7 µM | HCT-116 13 µM | KM-20L2 27.7 µM | KM12 95.7 µM | Malme-3M > 100 µM | SF-295 68.4 µM | U-251 25.6 µM | K562 11.6 µM | CAKI-1 > 100 µM

N#CCCN(c1ccc(/C=C2\N=C(Cc3ccccc3)OC2=O)cc1)S(=O)(=O)c1ccccc1
inactive: A498 > 100 µM | HT-29 > 100 µM | COLO 205 > 100 µM | UACC-62 > 100 µM | RPMI-8226 > 100 µM | OVCAR-8 > 100 µM | SF-268 > 100 µM | HOP-62 > 100 µM | HCT-116 > 100 µM | KM-20L2 > 100 µM | KM12 > 100 µM | Malme-3M > 100 µM | SF-295 > 100 µM | U-251 > 100 µM | K562 > 100 µM | CAKI-1 > 100 µM
